Results on four compounds are retold here after patent US20090170947A1, “DISINFECTANT COMPOSITIONS, METHODS AND SYSTEMS” (priority 2007, published 2009).

The conditions of data set [1]: humans; doses of up to 3000 mg infused over 3 hours, daily; cited from earlier work.
The test system of a further data set is P. aeruginosa. In words: Checkerboard Titration, P. aeruginosa. It counts as cell-based, Pseudomonas aeruginosa. The settings on record: PHMB with EDTA(Na4).
In data set [2] the test system is blood coagulation (clotting). The experiment in a line: Prothrombin Time (PT) Assay. Format: biochemical. The settings on record: concentration of TEDTA of 4 wt %; ISI 1.89. Here is the method:
Experiments were conducted to assess the anticoagulant capacities of PHMB, EDTA and combinations of PHMB and EDTA via a Prothrombin Time (PT) Assay. A PT assay (TM-4339-063) was conducted using a Coagulation Analyzer to obtain PT instead of manually recording the PT. Tetrasodium […]) was used (Alfa Aesar, Catalog #A17385, Lot #J9570A). […] […] […] INR is calculated as: INR=([…] sample/PTnormal control)^ISI ISI (International Sensitivity Index) indicates the sensitivity of individual thromboplastin. […] All the PTs greater than 3×the […] 1 (normal control) were replaced with 32 seconds.

A further data set relates to S. aureus. The experiment in a line: Checkerboard Titration, S. aureus. Format: cell-based, Staphylococcus aureus. The following applies: PHMB with EDTA(Na4). Here is the method: The following concentrations were tested: Fraction Inhibitory Concentration (FIC) is defined as the MIC of the compound in combination divided by the MIC of the compound alone. […] In order to calculate the FIC index the following calculations are performed for compounds A and B: • FIC-A=(MIC of A in combination)/(MIC of A alone) • FIC-B=(MIC of B in combination)/(MIC of […]

The next data set has as its system C. albicans. The experiment in a line: Checkerboard Titration, C. albicans. It counts as cell-based, Candida albicans. The following applies: PHMB with EDTA(Na4).
Data set [3] concerns Pseudomonas aeruginosa (Organism #27853). In words: MIC/MBC micro-dilution at pH 7, P. aeruginosa. It counts as cell-based. The following applies: pH of 7. Here is the method: (§1) In order to determine MIC (minimum inhibitory concentration) and MBC (minimum bactericidal concentration) a National Committee on Clinical Laboratory Standards (NCCLS) micro-dilution procedure was followed. According to the procedure each formulation must be exposed to 6 log concentration of organism or the highest achievable concentration. In the current protocol 100 μL of MHB was mixed with 90 μL of formulation and 10 μL of log 8 organism or the highest achievable concentration. The concentration of the formulation was adjusted to obtain the required concentration in the final solution. The mixture was incubated at 37 degree C. for 16-24 hrs. After 16-24 hours the absorbance value was read at 600 nm. The obtained data was corrected by subtracting the appropriate blanks. Finally, the wells having an absorbance >0.1 were marked + and <0.1 were marked −. The +symbol indicated growth while −symbol indicates no growth.
(§2) Staphylococcus aureus (Organism #25923), Pseudomonas aeruginosa (Organism #27853), and Candida Albicans (Organism #10231) was obtained from ATCC. […] These solutions were then serially diluted as necessary to obtain the required concentrations.

The subject of data set [4] is Staphylococcus aureus (Organism #25923). The experiment in a line: MIC/MBC micro-dilution at pH 7, S. aureus. It counts as cell-based. The settings on record: pH of 7. Here is the method: as §1, §2
The subject of data set [5] is Candida Albicans (Organism #10231). In words: MIC/MBC micro-dilution at pH 7, C. albicans. It counts as cell-based. The following applies: pH of 7. Here is the method: as §1, §2
For data set [6] the following is noted: rabbit, in vivo; cited from earlier work.

Counter-ions that a name gives are not always drawn.

For the compound `O=C([O-])CN(CCN(CC(=O)[O-])CC(=O)O)CC(=O)O.[Na+].[Na+]` [EDTA disodium], in data set [1], the Tolerability result was “well tolerated”.
With `O=C([O-])CN(CCN(CC(=O)[O-])CC(=O)[O-])CC(=O)[O-].[Na+].[Na+].[Na+].[Na+]` [EDTA(Na4), EDTA, tetrasodium salt hydrate], the results for the “FIC of the single component (MIC in combination / MIC alone)” value in the data set with P. aeruginosa, in the data set on S. aureus and in the data set on C. albicans were 0.25, 0.4 and 0.3, respectively. In data set [2], the “International Normalized Ratio (INR)” value is listed as “greater than 7.25”.
For the compound `O=C(O)CN(CCN(CC(=O)O)CC(=O)O)CC(=O)O` [EDTA, EDTA, tetrasodium salt hydrate], the MBC is below 4.00 wt % in data set [3] and below 0.13 wt % in [4]. Besides, the MIC is given as below 0.25 wt % in data set [3], below 0.03 wt % in data set [4] and above 4.0 wt % in data set [5].
Consider Poly(hexamethylenebiguanide) [PHMB], for which the NOAEL entry in data set [6] was “NOAEL = 20 mg/kg/day”.
